Measurements as given in ChEMBL document CHEMBL4665709, “Rational Avoidance of Protease Cleavage Sites and Symmetrical End-Tagging Significantly Enhances the Stability and Therapeutic Potential of Antimicrobial Peptides” (J Med Chem, 2020).
≈ marks a conversion by molar mass, not a printed value. Where a SMILES comes first, the peptide text is derived from it.

Columns and labels:
[1] = Therapeutic index, ratio of MHC for human RBC to geometric mean of peptide MIC for Streptococcus agalactiae H92; format: toxicity; settings: human red blood cells (RBC), read-out: TI
[2] = Therapeutic index, ratio of MHC for human RBC to geometric mean of peptide MIC for Staphylococcus epidermidis ATCC 12228; format: toxicity; settings: human red blood cells (RBC), read-out: TI
[3] = Therapeutic index, ratio of MHC for human RBC to geometric mean of peptide MIC for methicillin-resistant Staphylococcus aureus 43300; format: toxicity; settings: human red blood cells (RBC), read-out: TI
[4] = Therapeutic index, ratio of MHC for human RBC to geometric mean of peptide MIC for Enterococcus faecalis ATCC 29212; format: toxicity; settings: human red blood cells (RBC), read-out: TI
[5] = Therapeutic index, ratio of MHC for human RBC to geometric mean of peptide MIC for Staphylococcus aureus ATCC 29213; format: toxicity; settings: human red blood cells (RBC), read-out: TI
[6] = Therapeutic index, ratio of MHC for human RBC to geometric mean of peptide MIC for Staphylococcus aureus 11011; format: toxicity; settings: human red blood cells (RBC), read-out: TI
[7] = Therapeutic index, ratio of MHC for human RBC to geometric mean of peptide MIC for Salmonella pullorum 7913; format: toxicity; settings: human red blood cells (RBC), read-out: TI
[8] = Therapeutic index, ratio of MHC for human RBC to geometric mean of peptide MIC for Salmonella typhimurium 7731; format: toxicity; settings: human red blood cells (RBC), read-out: TI
[9] = Therapeutic index, ratio of MHC for human RBC to geometric mean of peptide MIC for Salmonella choleraesuis 503; format: toxicity; settings: human red blood cells (RBC), read-out: TI
[10] = Therapeutic index, ratio of MHC for human RBC to geometric mean of peptide MIC for Escherichia coli UB1005; format: toxicity; settings: human red blood cells (RBC), read-out: TI
[11] = Therapeutic index, ratio of MHC for human RBC to geometric mean of peptide MIC for Salmonella typhimurium 14028; format: toxicity; settings: human red blood cells (RBC), read-out: TI
[12] = Therapeutic index, ratio of MHC for human RBC to geometric mean of peptide MIC for Escherichia coli ATCC 25922; format: toxicity; settings: human red blood cells (RBC), read-out: TI
Staphylococcus aureus [13] = assay: Antibacterial activity against Staphylococcus aureus ATCC 29213 after 18 to 24 hrs by CLSI-based broth microdilution method; format: functional; settings: time hrs 18-24
Staphylococcus aureus [14] = assay: Antibacterial activity against Staphylococcus aureus 11011 after 18 to 24 hrs by CLSI-based broth microdilution method; format: functional; settings: time hrs 18-24
Escherichia coli [15] = assay: Antibacterial activity against Escherichia coli ATCC 25922 after 18 to 24 hrs by CLSI-based broth microdilution method; format: functional; settings: time hrs 18-24
Escherichia coli [16] = assay: Antibacterial activity against Escherichia coli UB1005 after 18 to 24 hrs by CLSI-based broth microdilution method; format: functional; settings: time hrs 18-24
Salmonella typhimurium [17] = assay: Antibacterial activity against Salmonella typhimurium 14028 after 18 to 24 hrs by CLSI-based broth microdilution method; format: functional, Salmonella enterica subsp. enterica serovar Typhimurium; settings: Salmonella enterica, time hrs 18-24
Salmonella typhimurium [18] = assay: Antibacterial activity against Salmonella typhimurium 7731 after 18 to 24 hrs by CLSI-based broth microdilution method; format: functional, Salmonella enterica subsp. enterica serovar Typhimurium; settings: Salmonella enterica, time hrs 18-24
[19] = Antibacterial activity against Salmonella pullorum 7913 after 18 to 24 hrs by CLSI-based broth microdilution method; format: functional, Salmonella enterica subsp. enterica serovar Pullorum; settings: Salmonella enterica, time hrs 18-24
Salmonella enterica = assay: Antibacterial activity against Salmonella choleraesuis 503 after 18 to 24 hrs by CLSI-based broth microdilution method; format: functional; settings: time hrs 18-24
[20] = tested on: Staphylococcus epidermidis; assay: Antibacterial activity against Staphylococcus epidermidis ATCC 12228 after 18 to 24 hrs by CLSI-based broth microdilution method; format: functional; settings: time hrs 18-24
Enterococcus faecalis = assay: Antibacterial activity against Enterococcus faecalis ATCC 29212 after 18 to 24 hrs by CLSI-based broth microdilution method; format: functional; settings: time hrs 18-24
Staphylococcus aureus [21] = assay: Antibacterial activity against methicillin-resistant Staphylococcus aureus 43300 after 18 to 24 hrs by CLSI-based broth microdilution method; format: functional; settings: time hrs 18-24
Streptococcus agalactiae = assay: Antibacterial activity against Streptococcus agalactiae H92 after 18 to 24 hrs by CLSI-based broth microdilution method; format: functional; settings: time hrs 18-24
Escherichia coli [22] = assay: Antibacterial activity against Escherichia coli ATCC 25922 after 18 to 24 hrs in presence of 150 mM Na+ by CLSI-based broth microdilution method; format: functional; settings: time hrs 18-24
Erythrocyte = assay: Hemolytic activity in human RBC assessed as hemolysis; format: ADME, cell-based
[23] = Hemolytic activity in human RBC assessed as hemolysis at 1 to 128 uM relative to control; format: ADME, cell-based, Erythrocyte; settings: human red blood cells (RBC), dose 1-128 µM, read-out: Activity
[24] = Cytotoxicity against mouse RAW264.7 cells assessed as cell viability at 128 uM by MTT assay relative to control; format: cell-based; settings: read-out: Activity
[25] = Cytotoxicity against HEK-293T cells assessed as cell viability at 128 uM by MTT assay relative to control; format: cell-based; settings: human, read-out: Activity
Escherichia coli [26] = assay: Antibacterial activity against Escherichia coli ATCC 25922 after 18 to 24 hrs in presence of 4.5 mM K+ by CLSI-based broth microdilution method; format: functional; settings: time hrs 18-24
Escherichia coli [27] = assay: Antibacterial activity against Escherichia coli ATCC 25922 after 18 to 24 hrs in presence of 1 mM Mg2+ by CLSI-based broth microdilution method; format: functional; settings: time hrs 18-24
Escherichia coli [28] = assay: Antibacterial activity against Escherichia coli ATCC 25922 after 18 to 24 hrs in presence of 8 uM Zn2+ by CLSI-based broth microdilution method; format: functional; settings: time hrs 18-24
Escherichia coli [29] = assay: Antibacterial activity against Escherichia coli ATCC 25922 after 18 to 24 hrs in presence of 6 uM NH4+ by CLSI-based broth microdilution method; format: functional; settings: time hrs 18-24
Escherichia coli [30] = assay: Antibacterial activity against Escherichia coli ATCC 25922 after 18 to 24 hrs in presence of 6 uM Fe3+ by CLSI-based broth microdilution method; format: functional; settings: time hrs 18-24
Escherichia coli [31] = assay: Antibacterial activity against Escherichia coli ATCC 25922 after 18 to 24 hrs in presence of 25% human serum by CLSI-based broth microdilution method; format: functional; settings: time hrs 18-24
Escherichia coli [32] = assay: Antibacterial activity against Escherichia coli ATCC 25922 after 18 to 24 hrs in presence of 50% human serum by CLSI-based broth microdilution method; format: functional; settings: time hrs 18-24
Escherichia coli [33] = assay: Antibacterial activity against Escherichia coli ATCC 25922 after 18 to 24 hrs in presence of 100% human serum by CLSI-based broth microdilution method; format: functional; settings: time hrs 18-24
Staphylococcus aureus [34] = assay: Antibacterial activity against Staphylococcus aureus ATCC 29213 after 18 to 24 hrs in presence of 150 mM Na+ by CLSI-based broth microdilution method; format: functional; settings: time hrs 18-24
Staphylococcus aureus [35] = assay: Antibacterial activity against Staphylococcus aureus ATCC 29213 after 18 to 24 hrs in presence of 4.5 mM K+ by CLSI-based broth microdilution method; format: functional; settings: time hrs 18-24
Staphylococcus aureus [36] = assay: Antibacterial activity against Staphylococcus aureus ATCC 29213 after 18 to 24 hrs in presence of 1 mM Mg2+ by CLSI-based broth microdilution method; format: functional; settings: time hrs 18-24
Staphylococcus aureus [37] = assay: Antibacterial activity against Staphylococcus aureus ATCC 29213 after 18 to 24 hrs in presence of 8 uM Zn2+ by CLSI-based broth microdilution method; format: functional; settings: time hrs 18-24
Staphylococcus aureus [38] = assay: Antibacterial activity against Staphylococcus aureus ATCC 29213 after 18 to 24 hrs in presence of 6 uM NH4+ by CLSI-based broth microdilution method; format: functional; settings: time hrs 18-24
Staphylococcus aureus [39] = assay: Antibacterial activity against Staphylococcus aureus ATCC 29213 after 18 to 24 hrs in presence of 6 uM Fe3+ by CLSI-based broth microdilution method; format: functional; settings: time hrs 18-24
Staphylococcus aureus [40] = assay: Antibacterial activity against Staphylococcus aureus ATCC 29213 after 18 to 24 hrs in presence of 25% human serum by CLSI-based broth microdilution method; format: functional; settings: time hrs 18-24
Staphylococcus aureus [41] = assay: Antibacterial activity against Staphylococcus aureus ATCC 29213 after 18 to 24 hrs in presence of 50% human serum by CLSI-based broth microdilution method; format: functional; settings: time hrs 18-24
Staphylococcus aureus [42] = assay: Antibacterial activity against Staphylococcus aureus ATCC 29213 after 18 to 24 hrs in presence of 100% human serum by CLSI-based broth microdilution method; format: functional; settings: time hrs 18-24
[43] = Stability of compound at 100 degreeC after 30 to 90 mins; format: physicochemical; settings: time 30-90 min

CC[C@H](C)[C@H](N)C(=O)N[C@H](C(=O)N[C@@H](CS)C(=O)N[C@@H](CCCNC(=N)N)C(=O)N[C@@H](CCCCN)C(=O)N1CCC[C@H]1C(=O)N[C@H](C(=O)N[C@H](C(=O)N[C@@H](CS)C(=O)N[C@@H](CCCNC(=N)N)C(=O)N[C@@H](CCCCN)C(=O)N1CCC[C@H]1C(=O)N[C@H](C(=O)N[C@H](C(=O)N[C@@H](CS)C(=O)N[C@@H](CCCNC(=N)N)C(=O)N[C@@H](CCCCN)C(=O)N1CCC[C@H]1C(=O)N[C@H](C(=O)N[C@H](C(=O)N[C@@H](CS)C(=O)N[C@@H](CCCNC(=N)N)C(=O)N[C@@H](CCCCN)C(=O)N1CCC[C@H]1C(=O)N[C@H](C(=O)N[C@H](C(N)=O)[C@@H](C)CC)[C@@H](C)CC)[C@@H](C)CC)[C@@H](C)CC)[C@@H](C)CC)[C@@H](C)CC)[C@@H](C)CC)[C@@H](C)CC)[C@@H](C)CC (H-IICRKPIICRKPIICRKPIICRKPII-NH2)
selectivity ratio [1]: 6.35
selectivity ratio [2]: 6.35
selectivity ratio [3]: 6.35
selectivity ratio [4]: 6.35
selectivity ratio [5]: 6.35
selectivity ratio [6]: 6.35
selectivity ratio [7]: 50.8
selectivity ratio [8]: 50.8
selectivity ratio [9]: 50.8
selectivity ratio [10]: 50.8
selectivity ratio [11]: 50.8
selectivity ratio [12]: 50.8
MIC (Staphylococcus aureus [13]): 32 µM (≈ 98.8 µg/mL)
MIC (Staphylococcus aureus [14]): 16 µM (≈ 49.4 µg/mL)
MIC (Escherichia coli [15]): 2 µM (≈ 6.17 µg/mL)
MIC (Escherichia coli [16]): 1 µM (≈ 3.09 µg/mL)
MIC (Salmonella typhimurium [17]): 2 µM (≈ 6.17 µg/mL)
MIC (Salmonella typhimurium [18]): 2 µM (≈ 6.17 µg/mL)
MIC [19]: 8 µM (≈ 24.7 µg/mL)
MIC (Salmonella enterica): 4 µM (≈ 12.3 µg/mL)
MIC [20]: 16 µM (≈ 49.4 µg/mL)
MIC (Enterococcus faecalis): 32 µM (≈ 98.8 µg/mL)
MIC (Staphylococcus aureus [21]): 16 µM (≈ 49.4 µg/mL)
MIC (Streptococcus agalactiae): 16 µM (≈ 49.4 µg/mL)
MIC (Escherichia coli [22]): 8 µM
MHC (Erythrocyte): > 128 µM
hemolysis at up to 128 µM [23]: < 5%
viability at 128 µM [24]: > 90%
viability at 128 µM [25]: > 90%
MIC (Escherichia coli [26]): 2 µM
MIC (Escherichia coli [27]): 8 µM
MIC (Escherichia coli [28]): 2 µM
MIC (Escherichia coli [29]): 2 µM
MIC (Escherichia coli [30]): 2 µM
MIC (Escherichia coli [31]): 4 µM
MIC (Escherichia coli [32]): 4 µM
MIC (Escherichia coli [33]): 16 µM
MIC (Staphylococcus aureus [34]): 64 µM
MIC (Staphylococcus aureus [35]): 64 µM
MIC (Staphylococcus aureus [36]): 64 µM
MIC (Staphylococcus aureus [37]): 32 µM
MIC (Staphylococcus aureus [38]): 32 µM
MIC (Staphylococcus aureus [39]): 32 µM
MIC (Staphylococcus aureus [40]): 64 µM
MIC (Staphylococcus aureus [41]): 64 µM
MIC (Staphylococcus aureus [42]): 64 µM
Stabilty [43]: Stable
